From PMC2962730 (Journal of neurochemistry, 2010)
Residue numbers refer to the chain shown, from its start.

Experiments:
[1] = biological target: T1, hVAChT F231A (Homo sapiens, UniProt Q16572, F231A); assay: [3H]vesamicol saturation binding; conditions: pH 7.4
T1 sequence (Q16572 1-532 F231A): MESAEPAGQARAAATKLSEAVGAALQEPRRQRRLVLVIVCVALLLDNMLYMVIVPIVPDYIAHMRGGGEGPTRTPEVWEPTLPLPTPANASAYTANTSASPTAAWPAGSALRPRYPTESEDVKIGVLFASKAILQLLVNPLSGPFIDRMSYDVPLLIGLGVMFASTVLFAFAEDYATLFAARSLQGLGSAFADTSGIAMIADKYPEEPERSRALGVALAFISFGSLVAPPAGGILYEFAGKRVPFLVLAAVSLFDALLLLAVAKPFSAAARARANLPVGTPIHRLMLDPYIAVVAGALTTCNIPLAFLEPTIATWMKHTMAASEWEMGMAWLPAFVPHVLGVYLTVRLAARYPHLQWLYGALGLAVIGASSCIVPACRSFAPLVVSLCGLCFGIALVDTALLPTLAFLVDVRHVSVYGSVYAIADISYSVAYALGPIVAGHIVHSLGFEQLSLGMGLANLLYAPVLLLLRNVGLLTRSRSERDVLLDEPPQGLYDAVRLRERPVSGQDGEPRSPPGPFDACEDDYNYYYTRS

[2] = biological target: T2, hVAChT M316A (Homo sapiens, UniProt Q16572, M316A); assay: [3H]vesamicol saturation binding; conditions: pH 7.4
T2 sequence (Q16572 1-532 M316A): T1 sequence (Q16572 1-532 F231A) with A231F, M316A

[3] = biological target: T3, hVAChT wild-type (Homo sapiens, UniProt Q16572); assay: [3H]vesamicol saturation binding; conditions: WT hVAChT; pH 7.4; per mg postnuclear supernatant
T3 sequence (Q16572 1-532): T1 sequence (Q16572 1-532 F231A) with A231F

[4] = biological target: T4, hVAChT A321F (Homo sapiens, UniProt Q16572, A321F); assay: ACh equilibrium binding by competition against [3H]vesamicol
T4 sequence (Q16572 1-532 A321F): T1 sequence (Q16572 1-532 F231A) with A231F, A321F

[5] = biological target: T5, hVAChT F392A (Homo sapiens, UniProt Q16572, F392A); assay: as above
T5 sequence (Q16572 1-532 F392A): T1 sequence (Q16572 1-532 F231A) with A231F, F392A

[6] = biological target: T3, hVAChT wild-type; assay: [3H]ACh transport; format: biochemical; conditions: WT hVAChT, pH 7.4

Structure (SMILES) | Bmax, maximal specific [3H]vesamicol binding (VAChT expression level) [1] | Bmax, maximal specific [3H]vesamicol binding (VAChT expression level) [2] | Bmax, maximal specific [3H]vesamicol binding (VAChT expression level) [3] | Kd [4] | FHA, fraction of the ACh sites that have high affinity ([4]; A321F hVAChT, pH 7.4) | Kd [5] | FHA, fraction of the ACh sites that have high affinity ([5]; F392A hVAChT, pH 7.4) | Vmax/Bmax, ACh transport normalized to Bmax [6] | Km ([6]; read-out: KM, Michaelis-Menten constant for ACh transport)
O[C@@H]1CCCC[C@H]1N1CCC(c2ccccc2)CC1 (racemic) [vesamicol, ( )-trans-2-(4-phenylpiperidino)cyclohexanol] | 64 ± 4 pmol/mg | 38 ± 2 pmol/mg | 50 ± 1 pmol/mg | – | – | – | – | – | –
CC(=O)OCC[N+](C)(C)C [ACh, acetylcholine] | – | – | – | 15 ± 2 mM | 0.90 ± 0.06 | 7.9 ± 1.3 mM | 0.91 ± 0.06 | 6.8 ± 0.5 min⁻¹ | 950 ± 200 µM
